What was measured:
[1] = biological target: T1, Peptidyl-glycine alpha-amidating monooxygenase (Homo sapiens, UniProt P19021); assay: Competitive inhibition of secreted PAM in human DMS53 cell culture medium using as(R)-Tyr-(S)-Val-Gly as substrate after 2 hrs by HPLC analysis; parameters: species or system DMS-53
T1 sequence (P19021 whole entry): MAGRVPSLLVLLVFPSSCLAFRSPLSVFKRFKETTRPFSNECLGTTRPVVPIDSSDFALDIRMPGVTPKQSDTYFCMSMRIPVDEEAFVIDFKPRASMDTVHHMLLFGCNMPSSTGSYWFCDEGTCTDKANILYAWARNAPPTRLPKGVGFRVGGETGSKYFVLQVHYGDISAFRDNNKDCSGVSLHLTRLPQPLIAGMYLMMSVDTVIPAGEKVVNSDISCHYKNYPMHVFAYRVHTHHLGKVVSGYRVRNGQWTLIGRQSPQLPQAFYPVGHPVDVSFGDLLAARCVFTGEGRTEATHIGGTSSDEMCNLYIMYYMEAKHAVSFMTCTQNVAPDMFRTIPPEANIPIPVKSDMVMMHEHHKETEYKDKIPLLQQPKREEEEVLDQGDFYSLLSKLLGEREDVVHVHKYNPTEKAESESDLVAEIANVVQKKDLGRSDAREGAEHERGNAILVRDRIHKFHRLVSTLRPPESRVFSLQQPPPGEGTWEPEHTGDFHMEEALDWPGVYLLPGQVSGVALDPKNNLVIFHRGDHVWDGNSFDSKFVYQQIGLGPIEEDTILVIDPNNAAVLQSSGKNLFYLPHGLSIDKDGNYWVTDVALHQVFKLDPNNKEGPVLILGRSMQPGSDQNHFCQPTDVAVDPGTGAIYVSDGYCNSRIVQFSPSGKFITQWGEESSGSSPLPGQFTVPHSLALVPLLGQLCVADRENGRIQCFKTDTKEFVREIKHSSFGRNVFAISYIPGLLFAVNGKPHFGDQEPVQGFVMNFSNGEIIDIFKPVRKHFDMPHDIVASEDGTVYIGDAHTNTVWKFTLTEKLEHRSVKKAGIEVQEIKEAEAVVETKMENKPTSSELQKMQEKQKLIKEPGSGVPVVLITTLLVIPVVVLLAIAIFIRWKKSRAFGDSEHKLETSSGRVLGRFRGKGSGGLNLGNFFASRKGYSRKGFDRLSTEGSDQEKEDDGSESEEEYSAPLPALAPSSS

[2] = biological target: T1, Peptidyl-glycine alpha-amidating monooxygenase; assay: Competitive inhibition of PAM in human DMS53 cells using as(R)-Tyr-(S)-Val-Gly as substrate after 2 hrs by HPLC analysis; format: cell-based, DMS-53

| SMILES | IC50 [1] [µM] | IC50 [2] [µM] |
| --- | --- | --- |
| CC(=O)N[C@@H](CC(C)C)C(=O)NCC(=O)OCC(=O)O | 200 | 120 |
| O=C(O)COC(=O)[C@@H]1CCCN1 | 500 | 600 |
| C[C@H](NC(=O)CN)C(=O)N[C@@H](Cc1ccccc1)C(=O)OCC(=O)O | 160 | 560 |
| CC(=O)NCC(=O)OCC(=O)O | 1800 | 210 |
| C[C@H](NC(=O)CN)C(=O)N1CCC[C@H]1C(=O)OCC(=O)O | 1100 | 980 |
